# System: IgG from human donors (anti-AAV antibodies)
# Test: Screen for anti-AAV antibodies in human sera, 2452 linear 15-amino-acid AAV peptides on microarrays (Table 1)
# Assay type: binding
# Design: key to group I: X: the deduplicated aggregate of the respective top 10 peptide hits for each donor was compiled and designated as group I; key to group II: X: the deduplicated aggregate of the respective top 25 peptide hits for each donor was compiled and designated as group II; key to group III: X: the deduplicated aggregate of the respective top 50 peptide hits for each donor was compiled and designated as group III
# Conditions: fluorescence; for group I: membership in deduplicated aggregate of top 10 peptide hits for each donor; for group II: membership in deduplicated aggregate of top 25 peptide hits for each donor
# Description: 2452 linear peptides derived from the sequences of 16 different AAVs and with a sequence length of 15 amino-acids each were synthesized.
# Samples obtained from human donors were screened for antibodies against these AAV-derived peptides immobilized on microarrays. To this end, IgG was prepared from blood obtained from the human donors by protein G purification. Each IgG sample was incubated with the peptide microarrays and Ig binding signals were detected by fluorescence. All antibody binding signals to the peptides on the arrays were background subtracted and ranked for each sample and a deduplicated aggregate of the respective top 250 peptide hits for each donor with the corresponding protein sequence of origin (as obtained from UniProt or other sources) was compiled (designated as group IV). Further, the deduplicated aggregate of the respective top 50 peptide hits for each donor was compiled and designated as group III. Further, the deduplicated aggregate of the respective top 25 peptide hits for each donor was compiled and designated as group II. Finally, the deduplicated aggregate of the respective top 10 peptide hits for each donor was compiled and designated as group I.
# Altogether, group I contains 110 distinct peptide hits (assigned to the corresponding AAV vectors in Table 1), group II contains 289 distinct peptide hits, group III contains 428 distinct peptide hits and group IV contains 1271 distinct peptide hits. Evidently, group I is a subset of group II which in turn is a subset of group III which in turn is a subset of group IV. Groups I-IV correspond to the top 4.4%, […], 17.5% and 51.8%, respectively, of all peptides screened.
# [1] = X = peptide in the deduplicated aggregate of the top 50 peptide hits for each donor (top 17.5% of all peptides screened), linear 15-amino-acid AAV peptides on microarrays, human donor IgG
# [2] = human donor IgG binding to linear 15-amino-acid AAV peptides on microarray
# [3] = membership in deduplicated aggregate of top 50 peptide hits for each donor, human donor IgG binding to linear 15-amino-acid AAV peptides on microarray
Substance,group III [1],group I [2],group II [2],group III [3]
447 (YNNHLYKQISNGTSG; REGION 1..15: note = peptide derived from viral capsid protein) [compound 447],X,,,
453 (FGYSTPWGYFDFNRF; REGION 1..15: note = peptide derived from viral capsid protein) [compound 453],X,,,
454 (YFGYSTPWGYFDFNR; REGION 1..15: note = peptide derived from viral capsid protein) [compound 454],X,,,
459 (YSTGQVTVEMEWELK; REGION 1..15: note = peptide derived from viral capsid protein) [compound 459],X,,,
466 (ELKKENSKRWNPEIQ; REGION 1..15: note = peptide derived from viral capsid protein) [compound 466],X,,,
470 (ANNLTSTVQVFTDDD; REGION 1..15: note = peptide derived from viral capsid protein) [compound 470],X,,,
474 (ENSKRWNPEIQYTNN; REGION 1..15: note = peptide derived from viral capsid protein) [compound 474],X,,,
475 (AGPPKPKPNQQHQDQ; REGION 1..15: note = peptide derived from viral capsid protein) [compound 475],X,,,
476 (PSTSSDAEAGPSGSQ; REGION 1..15: note = peptide derived from viral capsid protein) [compound 476],X,,,
479 (DSTTTIANNLTSTVQ; REGION 1..15: note = peptide derived from viral capsid protein) [compound 479],X,,,
481 (LGLEAGPPKPKPNQQ; REGION 1..15: note = peptide derived from viral capsid protein) [compound 481],X,,,
483 (TMSAGGGGPLGDNNQ; REGION 1..15: note = peptide derived from viral capsid protein) [compound 483],X,,,
ADPPTTFSQAKLAS [SEQ ID NO: 1939],,X,X,X
APGKKRPVDQSPQE (REGION 1..14: note = peptide derived from viral capsid protein) [SEQ ID NO: 1918],,X,X,X
DAAALEHDKAYDQQ [SEQ ID NO: 1940],,X,X,X
DDEDKFFPMSGVMI (REGION 1..14: note = peptide derived from viral capsid protein) [SEQ ID NO: 1937],,X,X,X
DEEEIKATNPVATE (REGION 1..14: note = peptide derived from viral capsid protein) [SEQ ID NO: 1932],,X,X,X
DKAYDQQLKAGDNP (REGION 1..14: note = peptide derived from viral capsid protein) [SEQ ID NO: 1941],,X,X,X
DKAYDQQLQAGDNP (REGION 1..14: note = peptide derived from viral capsid protein) [SEQ ID NO: 1928],,X,X,X
DKAYDRQLDSGDNP (REGION 1..14: note = peptide derived from viral capsid protein) [SEQ ID NO: 1926],,X,X,X
DKDKFFPMSGVMIF (REGION 1..14: note = peptide derived from viral capsid protein) [SEQ ID NO: 1933],,X,X,X
DSESVPDPQPIGEP (REGION 1..14: note = peptide derived from viral capsid protein) [SEQ ID NO: 1942],,X,X,X
DSQWLGDRVITTST (REGION 1..14: note = peptide derived from viral capsid protein) [SEQ ID NO: 1892],,X,X,X

Substance,group III [1],group I [2],group II [2],group III [3]
DWLEDNLSEGIREW (REGION 1..14: note = peptide derived from viral capsid protein) [SEQ ID NO: 1943],,X,X,X
EEEIKTTNPVATEE (REGION 1..14: note = peptide derived from viral capsid protein) [SEQ ID NO: 1935],,X,X,X
EEIKTTNPVATEQY (REGION 1..14: note = peptide derived from viral capsid protein) [SEQ ID NO: 1945],,X,X,X
ESVPDPQPIGEPPA [SEQ ID NO: 1947],,X,X,X
EYQLPYVLGSAHQG (REGION 1..14: note = peptide derived from viral capsid protein) [SEQ ID NO: 1948],,X,X,X
FQERLQEDTSFGGN [SEQ ID NO: 1949],,X,X,X
GNTSQQQTDRNAFY (REGION 1..14: note = peptide derived from viral capsid protein) [SEQ ID NO: 1897],,X,X,X
GQNNNSNFAWTAGT [SEQ ID NO: 1936],,X,X,X
GTNTMATGSGAPMA (REGION 1..14: note = peptide derived from viral capsid protein) [SEQ ID NO: 1927],,X,X,X
HSQSLDRLMNPLID (REGION 1..14: note = peptide derived from viral capsid protein) [SEQ ID NO: 1951],,X,X,X
HYFGYSTPWGYFDF (REGION 1..14: note = peptide derived from viral capsid protein) [SEQ ID NO: 1917],,X,X,X
KGEPVNAADAAALE (REGION 1..14: note = peptide derived from viral capsid protein) [SEQ ID NO: 1952],,×,X,X
KNTPVPADPPTTES [SEQ ID NO: 1930],,X,X,X
KNTPVPADPPTTFS (REGION 1..14: note = peptide derived from viral capsid protein) [SEQ ID NO: 1953],,×,X,X
LPYVLGSAHQGCLP (REGION 1..14: note = peptide derived from viral capsid protein) [SEQ ID NO: 1954],,X,X,X
LQQQNAAPIVGAVN (REGION 1..14: note = peptide derived from viral capsid protein) [SEQ ID NO: 1955],,X,X,X
LQQQNTAPQIGTVN (REGION 1..14: note = peptide derived from viral capsid protein) [SEQ ID NO: 1934],,X,X,X
NAADAAALEHDKAY [SEQ ID NO: 1956],,X,X,X
NPGVAMATHKDDEE [SEQ ID NO: 1957],,X,X,X
PGAPKPKANQQKQD [SEQ ID NO: 1958],,X,X,X
PLVDQYLYRFVSTN (REGION 1..14: note = peptide derived from viral capsid protein) [SEQ ID NO: 1938],,X,X,X
PPQILIKNTPVPAD [SEQ ID NO: 1959],,X,X,X
